# According to ChEMBL document CHEMBL4765473, “PF-07059013: A Noncovalent Modulator of Hemoglobin for Treatment of Sickle Cell Disease” (J Med Chem, 2021):
# Calls of active or inactive are those of the source. No cut-off for these calls is given here.
# Assays:
# [1] = biological target: T1, Cytochrome P450 2C8 (Homo sapiens, UniProt P10632); assay: Inhibition of CYP2C8 (unknown origin); type: ADME
# T1 sequence (P10632 whole entry): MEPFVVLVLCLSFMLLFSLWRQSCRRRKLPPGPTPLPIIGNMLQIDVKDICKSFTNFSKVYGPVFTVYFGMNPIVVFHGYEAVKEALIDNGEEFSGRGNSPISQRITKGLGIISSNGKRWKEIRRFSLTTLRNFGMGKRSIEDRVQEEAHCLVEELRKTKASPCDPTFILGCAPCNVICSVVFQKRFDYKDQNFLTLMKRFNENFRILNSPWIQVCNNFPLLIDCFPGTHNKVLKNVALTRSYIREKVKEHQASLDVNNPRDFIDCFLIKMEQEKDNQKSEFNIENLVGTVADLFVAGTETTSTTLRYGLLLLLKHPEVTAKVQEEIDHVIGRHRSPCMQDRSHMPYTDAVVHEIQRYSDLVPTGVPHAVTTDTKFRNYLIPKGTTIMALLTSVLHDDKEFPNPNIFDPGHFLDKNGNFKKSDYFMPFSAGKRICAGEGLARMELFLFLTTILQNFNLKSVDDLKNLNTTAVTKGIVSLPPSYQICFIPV
# [2] = biological target: Cytochrome P450 2C9 (Homo sapiens, UniProt P11712); assay: Inhibition of CYP2C9 (unknown origin); type: ADME
# Cytochrome P450 2C9, sequence (P11712 whole entry): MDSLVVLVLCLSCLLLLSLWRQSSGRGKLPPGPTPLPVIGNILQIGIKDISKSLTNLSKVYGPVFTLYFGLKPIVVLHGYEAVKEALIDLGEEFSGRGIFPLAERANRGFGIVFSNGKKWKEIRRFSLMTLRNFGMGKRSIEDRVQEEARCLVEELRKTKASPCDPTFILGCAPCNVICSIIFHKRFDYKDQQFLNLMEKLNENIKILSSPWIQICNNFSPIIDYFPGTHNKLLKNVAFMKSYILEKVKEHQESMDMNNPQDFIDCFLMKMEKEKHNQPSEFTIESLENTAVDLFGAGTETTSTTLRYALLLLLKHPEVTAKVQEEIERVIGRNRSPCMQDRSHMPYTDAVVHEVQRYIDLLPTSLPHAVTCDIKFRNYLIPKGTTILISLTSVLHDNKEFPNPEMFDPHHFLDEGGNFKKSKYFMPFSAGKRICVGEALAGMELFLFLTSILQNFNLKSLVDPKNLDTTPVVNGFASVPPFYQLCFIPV
# [3] = biological target: T2, Voltage-gated inwardly rectifying potassium channel KCNH2 (Homo sapiens, UniProt Q12809); assay: Binding affinity to human ERG by dofetilide fluorescence polarization binding assay
# T2 sequence (Q12809 whole entry): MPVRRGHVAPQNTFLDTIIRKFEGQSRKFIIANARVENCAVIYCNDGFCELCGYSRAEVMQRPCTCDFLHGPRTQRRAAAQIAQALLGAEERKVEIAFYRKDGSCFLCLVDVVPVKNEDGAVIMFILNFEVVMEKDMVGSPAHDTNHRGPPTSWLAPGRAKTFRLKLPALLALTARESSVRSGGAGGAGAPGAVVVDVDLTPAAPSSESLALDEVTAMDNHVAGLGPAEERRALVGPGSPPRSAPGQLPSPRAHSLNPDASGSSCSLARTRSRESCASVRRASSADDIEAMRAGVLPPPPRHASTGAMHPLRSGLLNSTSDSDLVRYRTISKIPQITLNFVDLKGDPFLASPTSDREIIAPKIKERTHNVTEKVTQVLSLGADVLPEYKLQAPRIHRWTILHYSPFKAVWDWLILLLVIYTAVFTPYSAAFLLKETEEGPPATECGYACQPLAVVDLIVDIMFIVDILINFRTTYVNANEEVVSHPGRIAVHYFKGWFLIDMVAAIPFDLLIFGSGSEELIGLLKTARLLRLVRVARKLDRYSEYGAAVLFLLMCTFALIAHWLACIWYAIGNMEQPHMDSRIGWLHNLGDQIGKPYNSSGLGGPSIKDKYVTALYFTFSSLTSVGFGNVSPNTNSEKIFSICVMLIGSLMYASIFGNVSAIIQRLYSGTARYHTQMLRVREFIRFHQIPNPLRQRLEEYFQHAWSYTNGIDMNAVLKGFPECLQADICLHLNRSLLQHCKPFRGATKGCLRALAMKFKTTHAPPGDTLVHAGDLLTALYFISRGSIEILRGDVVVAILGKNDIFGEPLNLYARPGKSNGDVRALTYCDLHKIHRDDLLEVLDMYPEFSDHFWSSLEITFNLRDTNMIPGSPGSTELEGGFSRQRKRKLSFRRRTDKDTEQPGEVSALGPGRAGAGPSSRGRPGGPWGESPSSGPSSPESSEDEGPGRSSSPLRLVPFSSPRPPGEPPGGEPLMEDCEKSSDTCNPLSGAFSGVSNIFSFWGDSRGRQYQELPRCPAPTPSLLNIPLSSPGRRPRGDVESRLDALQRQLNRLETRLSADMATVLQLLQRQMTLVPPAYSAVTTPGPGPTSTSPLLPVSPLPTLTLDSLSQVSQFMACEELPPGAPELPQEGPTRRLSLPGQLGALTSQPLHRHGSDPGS
# [4] = biological target: Cytochrome P450 2D6 (Homo sapiens, UniProt P10635); assay: Inhibition of CYP2D6 (unknown origin); type: ADME
# Cytochrome P450 2D6, sequence (P10635 whole entry): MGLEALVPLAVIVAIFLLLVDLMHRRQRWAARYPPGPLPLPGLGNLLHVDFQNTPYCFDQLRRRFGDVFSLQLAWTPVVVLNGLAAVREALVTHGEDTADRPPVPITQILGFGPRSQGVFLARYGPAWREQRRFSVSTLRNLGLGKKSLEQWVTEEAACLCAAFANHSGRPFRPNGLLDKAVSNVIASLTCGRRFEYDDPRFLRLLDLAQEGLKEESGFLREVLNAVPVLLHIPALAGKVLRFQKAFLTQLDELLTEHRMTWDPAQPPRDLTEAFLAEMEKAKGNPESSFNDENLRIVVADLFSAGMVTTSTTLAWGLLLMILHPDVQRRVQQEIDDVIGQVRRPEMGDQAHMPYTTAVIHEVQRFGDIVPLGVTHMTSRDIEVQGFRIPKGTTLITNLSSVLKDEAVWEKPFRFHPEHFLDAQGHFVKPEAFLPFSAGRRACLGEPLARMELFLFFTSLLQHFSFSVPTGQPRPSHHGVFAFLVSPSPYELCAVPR
# [5] = Drug metabolism in human hepatocytes assessed formation of glucuronide metabolites; type: ADME, cell-based, Hepatocyte
# [6] = Intrinsic clearance in human hepatocytes assessed per million cells; type: ADME, cell-based, Hepatocyte; conditions: read-out: CLH
# [7] = Apparent permeability in MDCK cells; type: ADME, cell-based, Canis lupus familiaris; conditions: dog
# [8] = Apparent permeability from apical to basolateral side in MDCK-MDR1 cells; type: ADME, cell-based, Canis lupus familiaris; conditions: dog
# [9] = Apparent permeability from basolateral to apical side in MDCK-MDR1 cells; type: ADME, cell-based, Canis lupus familiaris; conditions: dog
# [10] = biological target: T3, Cytochrome P450 1A2 (Homo sapiens, UniProt P05177); assay: Inhibition of CYP1A2 (unknown origin); type: ADME
# T3 sequence (P05177 whole entry): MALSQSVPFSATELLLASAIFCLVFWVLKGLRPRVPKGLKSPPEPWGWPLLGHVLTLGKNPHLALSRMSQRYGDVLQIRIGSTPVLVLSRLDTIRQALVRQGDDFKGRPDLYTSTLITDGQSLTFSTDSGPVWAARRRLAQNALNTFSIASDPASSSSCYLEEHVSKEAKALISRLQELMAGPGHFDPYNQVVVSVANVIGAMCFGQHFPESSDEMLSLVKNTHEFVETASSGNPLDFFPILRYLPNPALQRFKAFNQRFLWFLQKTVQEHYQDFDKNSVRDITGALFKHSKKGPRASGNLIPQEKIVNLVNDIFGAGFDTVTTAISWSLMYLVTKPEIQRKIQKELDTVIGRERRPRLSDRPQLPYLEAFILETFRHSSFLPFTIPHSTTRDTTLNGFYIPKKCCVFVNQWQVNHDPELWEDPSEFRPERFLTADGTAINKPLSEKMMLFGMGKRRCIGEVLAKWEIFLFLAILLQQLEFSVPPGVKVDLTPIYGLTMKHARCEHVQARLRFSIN
# [11] = Distribution coefficient, log D of the compound by shake flask method; type: physicochemical; conditions: octanol/water
# [12] = Protein binding in human RBC assessed as unbound fraction at 1 mM; type: ADME, tissue-based, Erythrocyte; conditions: red blood cells (RBC)
# [13] = Unbound fraction in human plasma; type: ADME, cell-free
# [14] = biological target: T2, Voltage-gated inwardly rectifying potassium channel KCNH2; assay: Inhibition of human ERG by patch clamp assay
# [15] = tested on: Mus musculus; assay: Binding to HbS in sickle Townes mouse at 30 to 900 mg/kg, po dosed via gavage measured after 0.5 to 24 hrs by Hemox-analyzer based assay; type: functional, organism-based; conditions: dose 30-900 mg/kg, time 0.5-24 hrs
# [16] = Modulation of HbS (unknown origin) assessed as stabilization of the oxy-state of hemoglobin by measuring conversion from oxyHb (R) to deoxyHb (T) pre-incubated for 1 hr and measured after 120 mins by oxygen dissociation assay; set-up: species or system Homo sapiens
# [17] = Binding affinity to purified human cross-linked HbS by SPR analysis
# [18] = Protein binding in human blood; type: ADME, tissue-based
# [19] = biological target: Cytochrome P450 3A4 (Homo sapiens, UniProt P08684); assay: Inhibition of CYP3A4 (unknown origin); type: ADME
# Cytochrome P450 3A4, sequence (P08684 whole entry): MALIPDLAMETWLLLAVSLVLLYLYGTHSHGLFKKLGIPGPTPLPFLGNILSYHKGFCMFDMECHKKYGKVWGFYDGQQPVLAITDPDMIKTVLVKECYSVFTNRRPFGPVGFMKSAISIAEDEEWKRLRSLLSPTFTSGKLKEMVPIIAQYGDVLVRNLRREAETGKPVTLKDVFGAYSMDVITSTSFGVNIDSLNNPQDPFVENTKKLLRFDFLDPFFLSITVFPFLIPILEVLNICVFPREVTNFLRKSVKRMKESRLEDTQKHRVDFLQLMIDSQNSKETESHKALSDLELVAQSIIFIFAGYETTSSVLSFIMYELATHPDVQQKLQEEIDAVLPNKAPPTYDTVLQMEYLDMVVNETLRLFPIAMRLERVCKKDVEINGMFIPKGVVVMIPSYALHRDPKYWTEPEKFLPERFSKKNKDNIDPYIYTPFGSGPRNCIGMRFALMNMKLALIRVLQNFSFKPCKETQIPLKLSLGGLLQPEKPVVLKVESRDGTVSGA
# [20] = Drug metabolism in human hepatocytes assessed formation of acyl glucuronides metabolites; type: ADME, cell-based, Hepatocyte
# [21] = Intrinsic clearance in mouse hepatocytes assessed per million cells; type: ADME, cell-based, Hepatocyte; conditions: read-out: CLH
# [22] = biological target: CYP3A4 (Homo sapiens, UniProt P08684); assay: Inhibition of CYP3A4 (unknown origin) at 3 uM relative to control; type: ADME
# CYP3A4, sequence (P08684 whole entry): as above
# [23] = biological target: T4, CYP2C8 (Homo sapiens, UniProt P10632); assay: Inhibition of CYP2C8 (unknown origin) at 3 uM relative to control; type: ADME
# T4 sequence (P10632 whole entry): T1 sequence (P10632 whole entry)
# [24] = biological target: CYP2C9 (Homo sapiens, UniProt P11712); assay: Inhibition of CYP2C9 (unknown origin) at 3 uM relative to control; type: ADME
# CYP2C9, sequence (P11712 whole entry): as the sequence (P11712 whole entry) above
# [25] = biological target: CYP2D6 (Homo sapiens, UniProt P10635); assay: Inhibition of CYP2D6 (unknown origin) at 3 uM relative to control; type: ADME
# CYP2D6, sequence (P10635 whole entry): as the sequence (P10635 whole entry) above
# [26] = biological target: T5, CYP1A2 (Homo sapiens, UniProt P05177); assay: Inhibition of CYP1A2 (unknown origin) at 3 uM relative to control; type: ADME
# T5 sequence (P05177 whole entry): T3 sequence (P05177 whole entry)
# [27] = species on record: Homo sapiens; assay: Binding affinity to HbS (unknown origin) by ITC analysis; conditions: filed as modulator
# [28] = tested on: Mus musculus; assay: Binding to HbS in sickle Townes mouse at 10 to 490 mg/kg, po dosed via gavage measured after 0.5 to 24 hrs by Hemox-analyzer based assay; type: functional, organism-based; conditions: dose 10-490 mg/kg, time 0.5-24 hrs
# [29] = Modulation activity at HbS in sickle Townes mouse assessed as decrease in RBC sickling at 200 mg/kg, po BID for 15 days dosed via gavage by Hemox-analyzer based assay; type: functional; set-up: scale not given: the % may be the effect or the level left; conditions: time 15 day
# [30] = Drug metabolism in human hepatocytes assessed formation of acyl migration products; type: ADME, cell-based, Hepatocyte
# [31] = Half life in human hepatocytes by NMR analysis; type: ADME, cell-based, Hepatocyte
# [32] = species on record: Homo sapiens; assay: Binding affinity to HbS tetramer (unknown origin) by ESI-MS analysis; conditions: filed as modulator
Compound,hepatocyte CLint [6] [µL/min/1e6 cells],logD [11],IC50 [16] [µM],Kd [17] [µM],Ki [3] [µM],also measured
C[C@H](Oc1cc2cc(F)cc(F)c2nc1N)c1cc(C(=O)O)ccc1-n1cccn1,< 3,1,4.6,0.037,40,IC50 [1]: 17.3 µM; IC50 [2]: 20.6 µM; IC50 [4]: > 30 µM; Drug metabolism [5]: Metabolite_Detected; Papp [7]: 3 ×10⁻⁶ cm/s; Papp A→B [8]: 0.4 ×10⁻⁶ cm/s; Papp B→A [9]: 4 ×10⁻⁶ cm/s; IC50 [10]: > 30 µM; fraction unbound at 1000 µM [12]: 0.000577; fraction unbound [13]: 0.027; IC50 [14]: 144 µM; PPB [15]: Dose-dependent effect; PB [18]: Dose-dependent effect; IC50 [19]: > 30 µM; Drug metabolism [20]: Metabolite_Detected
C[C@H](Oc1cc2c(F)ccc(F)c2nc1N)c1cc(C(=O)O)ccc1-n1cccn1,< 3,1.1,4.5,0.064,,
C[C@H](Oc1cc2cc(F)ccc2nc1N)c1cc2c(cnn2CCO)cc1-n1cccn1,,3.3,4.5,0.02,8.3,
C[C@H](Oc1cc2cc(F)cc(F)c2nc1N)c1[nH]c(=O)ccc1-n1cccn1,17,2.6,4.3,0.014,63,
C[C@H](Oc1cc2cc(F)ccc2nc1N)c1[nH]c(=O)ccc1-n1cccn1 [PF-07059013],18,2.4,4.8,0.034,> 36,IC50 [1]: 21.8 µM; IC50 [2]: 24.9 µM; IC50 [4]: > 30 µM; Drug metabolism [5]: Metabolite_Detected; Papp [7]: 20 ×10⁻⁶ cm/s; Papp A→B [8]: 0.1 ×10⁻⁶ cm/s; Papp B→A [9]: 14 ×10⁻⁶ cm/s; IC50 [10]: 24.4 µM; fraction unbound at 1000 µM [12]: 0.000598; PPB [28]: Dose-dependent effect; fraction unbound [13]: 0.162; IC50 [14]: 43 µM; PB [18]: Dose-dependent effect; Activity [29]: 37.8%; IC50 [19]: > 30 µM
C=CCOC(=O)[C@H]1O[C@@H](OC(=O)c2ccc(-n3cccn3)c([C@H](C)Oc3cc4cc(F)cc(F)c4nc3N)c2)[C@H](O)[C@@H](O)[C@@H]1O,,,,,,Drug metabolism [30]: Metabolite_Detected; half-life [31]: 2.18 h
Cc1n[nH]cc1-c1cnc(N)c(OC(C)c2cc(F)ccc2-n2cccn2)c1 (racemic),,,,,,Activity [32]: Active

# Second part, led by results:
hepatocyte CLint [6] [µL/min/1e6 cells],logD [11],IC50 [16] [µM],Kd [17] [µM],Compound,Ki [3] [µM],also measured
57,4.1,5.7,0.115,C[C@H](Oc1cc2cc(F)ccc2nc1N)c1cc(F)c(F)cc1-n1cccn1,4.4,
13,3,11,0.402,C[C@H](Oc1cc2cc(C(N)=O)ccc2nc1N)c1cc(F)ccc1-n1cccn1,24,
23,3.2,21,3.6,Cc1n[nH]cc1-c1cnc(N)c(O[C@@H](C)c2cc(F)ccc2-n2cccn2)c1,3.8,hepatocyte CLint [21]: 104 µL/min/1e6 cells; inhibition at 3 µM [22]: < 50%; Papp [7]: 24 ×10⁻⁶ cm/s; inhibition at 3 µM [23]: < 50%; inhibition at 3 µM [24]: < 50%; inhibition at 3 µM [25]: < 50%; inhibition at 3 µM [26]: < 50%; Activity [27]: Active
,4,17,1.5,C[C@H](Oc1cc2ccccc2nc1N)c1cc(F)ccc1-n1cccn1,,
